Measurements: the NIST ThermoML archive (doi:10.1021/je200721d)

Assay: xn = mol fraction of the nth substance listed
Settings: Liquid, Vibrating tube method

CCCCCCCC [octane] + CCCCCC
Settings | mass density [kg/m3]
333.01 K, 7000 kPa, x2 = 0.9308 | 636.74
333.01 K, 8000 kPa, x2 = 0.9308 | 638.01
333.01 K, 9000 kPa, x2 = 0.9308 | 639.26
333.01 K, 10000 kPa, x2 = 0.9308 | 640.48
333.01 K, 11000 kPa, x2 = 0.9308 | 641.7
333.01 K, 12000 kPa, x2 = 0.9308 | 642.89
333.01 K, 13000 kPa, x2 = 0.9308 | 644.06
333.01 K, 14000 kPa, x2 = 0.9308 | 645.22
333.01 K, 15000 kPa, x2 = 0.9308 | 646.35
333.01 K, 16000 kPa, x2 = 0.9308 | 647.46
333.01 K, 17000 kPa, x2 = 0.9308 | 648.54
333.01 K, 18000 kPa, x2 = 0.9308 | 649.61
333.01 K, 19000 kPa, x2 = 0.9308 | 650.63
333.01 K, 20000 kPa, x2 = 0.9308 | 651.64
333.01 K, 21000 kPa, x2 = 0.9308 | 652.62
333.01 K, 22000 kPa, x2 = 0.9308 | 653.55
333.01 K, 23000 kPa, x2 = 0.9308 | 654.5
333.01 K, 24000 kPa, x2 = 0.9308 | 655.39
333.01 K, 25000 kPa, x2 = 0.9308 | 656.28
333.02 K, 1000 kPa, x2 = 0.1654 | 665.79
333.02 K, 1000 kPa, x2 = 0.7995 | 637.16
333.02 K, 2000 kPa, x2 = 0.1654 | 666.85
333.02 K, 2000 kPa, x2 = 0.7995 | 638.39
333.02 K, 3000 kPa, x2 = 0.1654 | 667.91
333.02 K, 3000 kPa, x2 = 0.7995 | 639.63
333.02 K, 4000 kPa, x2 = 0.1654 | 668.97
333.02 K, 4000 kPa, x2 = 0.7995 | 640.91
333.02 K, 5000 kPa, x2 = 0.1654 | 670.04
333.02 K, 5000 kPa, x2 = 0.7995 | 642.14
333.02 K, 6000 kPa, x2 = 0.1654 | 671.11
333.02 K, 6000 kPa, x2 = 0.7995 | 643.37
333.02 K, 7000 kPa, x2 = 0.1654 | 672.17
333.02 K, 7000 kPa, x2 = 0.7995 | 644.6
333.02 K, 8000 kPa, x2 = 0.1654 | 673.21
333.02 K, 8000 kPa, x2 = 0.7995 | 645.81
333.02 K, 9000 kPa, x2 = 0.1654 | 674.28
333.02 K, 9000 kPa, x2 = 0.7995 | 647.01
333.02 K, 10000 kPa, x2 = 0.1654 | 675.32
333.02 K, 10000 kPa, x2 = 0.7995 | 648.19
333.02 K, 11000 kPa, x2 = 0.1654 | 676.36
333.02 K, 11000 kPa, x2 = 0.7995 | 649.36
333.02 K, 12000 kPa, x2 = 0.1654 | 677.38
333.02 K, 12000 kPa, x2 = 0.7995 | 650.5
333.02 K, 13000 kPa, x2 = 0.1654 | 678.38
333.02 K, 13000 kPa, x2 = 0.7995 | 651.63
333.02 K, 14000 kPa, x2 = 0.1654 | 679.38
333.02 K, 14000 kPa, x2 = 0.7995 | 652.74
333.02 K, 15000 kPa, x2 = 0.1654 | 680.34
333.02 K, 15000 kPa, x2 = 0.7995 | 653.84
333.02 K, 16000 kPa, x2 = 0.1654 | 681.29
333.02 K, 16000 kPa, x2 = 0.7995 | 654.91
333.02 K, 17000 kPa, x2 = 0.1654 | 682.26
333.02 K, 17000 kPa, x2 = 0.7995 | 655.95
333.02 K, 18000 kPa, x2 = 0.1654 | 683.15
333.02 K, 18000 kPa, x2 = 0.7995 | 656.97
333.02 K, 19000 kPa, x2 = 0.1654 | 684.04
333.02 K, 19000 kPa, x2 = 0.7995 | 657.98
333.02 K, 20000 kPa, x2 = 0.1654 | 684.93
333.02 K, 20000 kPa, x2 = 0.7995 | 658.95
333.02 K, 21000 kPa, x2 = 0.1654 | 685.79
333.02 K, 21000 kPa, x2 = 0.7995 | 659.91
333.02 K, 22000 kPa, x2 = 0.1654 | 686.62
333.02 K, 22000 kPa, x2 = 0.7995 | 660.83
333.02 K, 23000 kPa, x2 = 0.1654 | 687.45
333.02 K, 23000 kPa, x2 = 0.7995 | 661.72
333.02 K, 24000 kPa, x2 = 0.1654 | 688.25
333.02 K, 24000 kPa, x2 = 0.7995 | 662.6
333.02 K, 25000 kPa, x2 = 0.1654 | 689.01
333.02 K, 25000 kPa, x2 = 0.7995 | 663.44
333.04 K, 1000 kPa, x2 = 0.2199 | 663.81
333.04 K, 2000 kPa, x2 = 0.2199 | 664.87
333.04 K, 3000 kPa, x2 = 0.2199 | 665.96
333.04 K, 4000 kPa, x2 = 0.2199 | 667.04
333.04 K, 5000 kPa, x2 = 0.2199 | 668.13
333.04 K, 6000 kPa, x2 = 0.2199 | 669.19
333.04 K, 7000 kPa, x2 = 0.2199 | 670.26
333.04 K, 8000 kPa, x2 = 0.2199 | 671.36
333.04 K, 9000 kPa, x2 = 0.2199 | 672.39
333.04 K, 10000 kPa, x2 = 0.2199 | 673.44
333.04 K, 11000 kPa, x2 = 0.2199 | 674.49
333.04 K, 12000 kPa, x2 = 0.2199 | 675.5
333.04 K, 13000 kPa, x2 = 0.2199 | 676.53
333.04 K, 14000 kPa, x2 = 0.2199 | 677.53
333.04 K, 15000 kPa, x2 = 0.2199 | 678.51
333.04 K, 16000 kPa, x2 = 0.2199 | 679.46
333.04 K, 17000 kPa, x2 = 0.2199 | 680.4
333.04 K, 18000 kPa, x2 = 0.2199 | 681.32
333.04 K, 19000 kPa, x2 = 0.2199 | 682.23
333.04 K, 20000 kPa, x2 = 0.2199 | 683.09
333.04 K, 21000 kPa, x2 = 0.2199 | 683.96
333.04 K, 22000 kPa, x2 = 0.2199 | 684.8
333.04 K, 23000 kPa, x2 = 0.2199 | 685.61
333.04 K, 24000 kPa, x2 = 0.2199 | 686.43
333.04 K, 25000 kPa, x2 = 0.2199 | 687.22
